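Step 1: Grow cells in 96-well plates. Step 2: Expose to compound for 48 hours at 5 concentrations. Step 3: Interpolate endpoints linearly; if unreached, use highest concentration. The concentration for full growth arrest is given as TGI.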
Assays:
Assay in all cases: NCI-60 cell line screen, 48 h
[1] = test system: SNB-78 CNS
[2] = test system: M19-MEL melanoma
[3] = test system: TK-10 renal
[4] = test system: HCT-116 colon
[5] = test system: LXFL 529 NSCLC
[6] = test system: SR leukemia
[7] = test system: OVCAR-4 ovarian
[8] = test system: DU-145 prostate
[9] = test system: HCC-2998 colon
[10] = test system: NCI-H522 lung
[11] = test system: NCI-H460 lung
[12] = test system: SNB-75 CNS
[13] = test system: CCRF-CEM leukemia
[14] = test system: UACC-62 melanoma
[15] = test system: DMS 114 small cell lung
[16] = test system: SN12C renal
[17] = test system: SW-620 colon
[18] = test system: M14 melanoma
[19] = test system: SF-268 CNS
[20] = test system: OVCAR-3 ovarian
[21] = test system: OVCAR-8 ovarian
[22] = test system: HT29 colon
[23] = test system: MOLT-4 leukemia
[24] = test system: T-47D breast
[25] = test system: UACC-257 melanoma
[26] = test system: NCI-H226 lung
[27] = test system: EKVX NSCLC
[28] = test system: ACHN renal
[29] = test system: OVCAR-5 ovarian
[30] = test system: SK-MEL-2 melanoma
[31] = test system: IGROV1 ovarian
[32] = test system: KM20L2 colon
[33] = test system: A549 NSCLC
[34] = test system: SF-539 CNS
[35] = test system: UO-31 renal
[36] = test system: MALME-3M melanoma
[37] = test system: RXF 393 renal
[38] = test system: DLD-1 colon
[39] = test system: SNB-19 CNS
[40] = test system: RPMI-8226 leukemia
[41] = test system: HOP-92 NSCLC
[42] = test system: NCI-H23 lung
[43] = test system: MCF7 breast
[44] = test system: A498 renal
[45] = test system: KM12 colon
[46] = test system: SK-MEL-5 melanoma
[47] = test system: SF-295 CNS
[48] = test system: LOX IMVI melanoma
[49] = test system: SK-MEL-28 melanoma
[50] = test system: HCT-15 colon
[51] = test system: COLO 205 colon
[52] = test system: BT-549 breast
[53] = test system: MDA-MB-435
[54] = test system: HS 578T breast
[55] = test system: 786-0 renal
[56] = test system: SK-OV-3 ovarian
[57] = test system: CAKI-1 renal
[58] = test system: U251 CNS
[59] = test system: K-562 leukemia
[60] = test system: HOP-62 NSCLC
[61] = test system: HL-60(TB) leukemia

O=C(NC1=C(Cl)C(=O)c2ccccc2C1=O)C(=O)C(C(=O)c1ccc2ccccc2c1)C1OC(=O)c2ccccc21 (centres undefined)
TGI [1]: 15.4 µM
TGI [2]: 0.856 µM
TGI [3]: 65.1 µM
TGI [4]: 10.5 µM
TGI [5]: 17.7 µM
TGI [6]: 29.4 µM
TGI [7]: 19.8 µM
TGI [8]: 23.9 µM
TGI [9]: 22.7 µM
TGI [10]: 12.1 µM
TGI [11]: 12 µM
TGI [12]: 13.6 µM
TGI [13]: 26.9 µM
TGI [14]: 4.31 µM
TGI [15]: 15.1 µM
TGI [16]: 16.3 µM
TGI [17]: 28.2 µM
TGI [18]: 18.2 µM
TGI [19]: 29.6 µM
TGI [20]: 9.77 µM
TGI [21]: 24.5 µM
TGI [22]: 17.7 µM
TGI [23]: 14.1 µM
TGI [24]: 29.3 µM
TGI [25]: 5.48 µM
TGI [26]: 7.09 µM
TGI [27]: 24.7 µM
TGI [28]: 21.1 µM
TGI [29]: 27.5 µM
TGI [30]: 19.1 µM
TGI [31]: 27 µM
TGI [32]: 18.6 µM
TGI [33]: 17.5 µM
TGI [34]: 9.66 µM
TGI [35]: 29.4 µM
TGI [36]: 4.16 µM
TGI [37]: 12.8 µM
TGI [38]: 16.9 µM
TGI [39]: 19 µM
TGI [40]: 26.2 µM
TGI [41]: 10.3 µM
TGI [42]: 13.4 µM
TGI [43]: 16.8 µM
TGI [44]: 18.4 µM
TGI [45]: 13.7 µM
TGI [46]: 1.96 µM
TGI [47]: 14.9 µM
TGI [48]: 11.2 µM
TGI [49]: 14.5 µM
TGI [50]: 18 µM
TGI [51]: 18.5 µM
TGI [52]: 17.3 µM
TGI [53]: 3.33 µM
TGI [54]: 45.2 µM
TGI [55]: 20.6 µM
TGI [56]: 44 µM
TGI [57]: 23.2 µM
TGI [58]: 18.5 µM
TGI [59]: 25.6 µM
TGI [60]: 20.2 µM
TGI [61]: 7.6 µM

COc1cccc2c1C(=O)c1c(O)c3c(c(O)c1C2=O)C[C@@](O)(C(=O)CO)CC3OC1CC(NCCOCC(OC(C)=O)OC(C)=O)C(O)C(C)O1 (some centres undefined)
TGI [3]: > 100 µM
TGI [5]: 12.2 µM
TGI [7]: 31.1 µM
TGI [13]: > 100 µM
TGI [16]: 1.32 µM
TGI [17]: 1.71 µM
TGI [31]: 3.04 µM
TGI [33]: > 100 µM
TGI [38]: 0.38 µM
TGI [39]: > 100 µM
TGI [50]: 0.0144 µM
TGI [55]: 3.16 µM
TGI [56]: 47.9 µM
TGI [57]: > 100 µM
TGI [58]: 1.23 µM
TGI [59]: > 100 µM
TGI [60]: 0.009 µM
TGI [61]: > 100 µM

— PubChem BioAssay (NCI)
